Laboratory results published in PubChem BioAssay (NCI).
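Grown in 96-well plates, cells were treated for 48 hours with each compound at five concentrations. Insufficient inhibition: endpoint recorded as highest concentration tested. GI50: concentration for 50% inhibition of growth. At the TGI there is no net growth.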

Experiments:
Assay in all cases: NCI-60 cell line screen, 48 h
UO-31 renal = tested on: UO-31 renal
786-0 renal = tested on: 786-0 renal
SF-539 CNS = tested on: SF-539 CNS
A498 renal = tested on: A498 renal
HCT-116 colon = tested on: HCT-116 colon
NCI-H23 lung = tested on: NCI-H23 lung
K-562 leukemia = tested on: K-562 leukemia
HOP-62 NSCLC = tested on: HOP-62 NSCLC
MDA-MB-435 = tested on: MDA-MB-435
SNB-19 CNS = tested on: SNB-19 CNS
UACC-62 melanoma = tested on: UACC-62 melanoma
SW-620 colon = tested on: SW-620 colon
HOP-92 NSCLC = tested on: HOP-92 NSCLC
PC-3 prostate = tested on: PC-3 prostate
SNB-75 CNS = tested on: SNB-75 CNS
M14 melanoma = tested on: M14 melanoma
NCI-H226 lung = tested on: NCI-H226 lung
OVCAR-8 ovarian = tested on: OVCAR-8 ovarian
COLO 205 colon = tested on: COLO 205 colon
HCT-15 colon = tested on: HCT-15 colon
ACHN renal = tested on: ACHN renal
MDA-MB-231 breast = tested on: MDA-MB-231 breast
HS 578T breast = tested on: HS 578T breast
HCC-2998 colon = tested on: HCC-2998 colon
NCI-H460 lung = tested on: NCI-H460 lung
SF-268 CNS = tested on: SF-268 CNS
MOLT-4 leukemia = tested on: MOLT-4 leukemia
DU-145 prostate = tested on: DU-145 prostate
SK-MEL-2 melanoma = tested on: SK-MEL-2 melanoma
SK-OV-3 ovarian = tested on: SK-OV-3 ovarian
SF-295 CNS = tested on: SF-295 CNS
HL-60(TB) leukemia = tested on: HL-60(TB) leukemia
SR leukemia = tested on: SR leukemia
OVCAR-3 ovarian = tested on: OVCAR-3 ovarian
A549 NSCLC = tested on: A549 NSCLC
CCRF-CEM leukemia = tested on: CCRF-CEM leukemia
IGROV1 ovarian = tested on: IGROV1 ovarian
OVCAR-4 ovarian = tested on: OVCAR-4 ovarian
KM12 colon = tested on: KM12 colon
SN12C renal = tested on: SN12C renal
HT29 colon = tested on: HT29 colon
UACC-257 melanoma = tested on: UACC-257 melanoma
SK-MEL-28 melanoma = tested on: SK-MEL-28 melanoma
RXF 393 renal = tested on: RXF 393 renal
MCF7 breast = tested on: MCF7 breast
LOX IMVI melanoma = tested on: LOX IMVI melanoma
EKVX NSCLC = tested on: EKVX NSCLC
U251 CNS = tested on: U251 CNS
SK-MEL-5 melanoma = tested on: SK-MEL-5 melanoma
OVCAR-5 ovarian = tested on: OVCAR-5 ovarian
NCI/ADR-RES ovarian = tested on: NCI/ADR-RES ovarian
NCI-H522 lung = tested on: NCI-H522 lung
RPMI-8226 leukemia = tested on: RPMI-8226 leukemia
TK-10 renal = tested on: TK-10 renal
BT-549 breast = tested on: BT-549 breast

## COc1cc2cc(c1Cl)N(C)C(=O)C[C@H](OC(=O)[C@H](C)N(C)C(=O)CCS)C[C@]1(C)O[C@H]1[C@H](C)[C@@H]1C[C@@](O)(NC(=O)O1)[C@H](OC)/C=C/C=C(\C)C2
UO-31 renal
  GI50: 28.2 nM
  TGI: > 50000 nM
786-0 renal
  GI50: 9.06 nM
  TGI: > 24700 nM
SF-539 CNS
  GI50: < 5 nM
  TGI: 67.4 nM
A498 renal
  GI50: < 5 nM
  TGI: 496 nM
HCT-116 colon
  GI50: < 5 nM
  TGI: 5780 nM
NCI-H23 lung
  GI50: 8.04 nM
  TGI: > 50000 nM
K-562 leukemia
  GI50: < 5 nM
  TGI: > 50000 nM
HOP-62 NSCLC
  GI50: < 5 nM
  TGI: > 50000 nM
MDA-MB-435
  GI50: < 5 nM
  TGI: < 5 nM
SNB-19 CNS
  GI50: < 5 nM
  TGI: > 50000 nM
UACC-62 melanoma
  GI50: < 5 nM
  TGI: > 50000 nM
SW-620 colon
  GI50: < 5 nM
  TGI: > 50000 nM
HOP-92 NSCLC
  GI50: < 5 nM
  TGI: 49600 nM
PC-3 prostate
  GI50: < 5 nM
  TGI: > 50000 nM
SNB-75 CNS
  GI50: < 5 nM
  TGI: > 50000 nM
M14 melanoma
  GI50: < 5 nM
  TGI: < 5 nM
NCI-H226 lung
  GI50: 38 nM
  TGI: > 50000 nM
OVCAR-8 ovarian
  GI50: 8.3 nM
  TGI: > 50000 nM
COLO 205 colon
  GI50: < 5 nM
  TGI: 25.7 nM
HCT-15 colon
  GI50: 6.24 nM
  TGI: > 50000 nM
ACHN renal
  GI50: < 5 nM
  TGI: > 50000 nM
MDA-MB-231 breast
  GI50: 6.81 nM
  TGI: 1610 nM
HS 578T breast
  GI50: 16.4 nM
  TGI: > 32000 nM
HCC-2998 colon
  GI50: 6.09 nM
  TGI: > 50000 nM
NCI-H460 lung
  GI50: < 5 nM
  TGI: > 30800 nM
SF-268 CNS
  GI50: 9.54 nM
  TGI: > 50000 nM
MOLT-4 leukemia
  GI50: < 5 nM
  TGI: > 50000 nM
DU-145 prostate
  GI50: < 5 nM
  TGI: > 50000 nM
SK-MEL-2 melanoma
  GI50: < 5 nM
  TGI: > 50000 nM
SK-OV-3 ovarian
  GI50: < 5 nM
  TGI: > 50000 nM
SF-295 CNS
  GI50: < 5 nM
HL-60(TB) leukemia
  GI50: < 5 nM
  TGI: < 5 nM
SR leukemia
  GI50: < 5 nM
  TGI: > 50000 nM
OVCAR-3 ovarian
  GI50: < 5 nM
  TGI: > 50000 nM
A549 NSCLC
  GI50: 7.52 nM
  TGI: > 50000 nM
CCRF-CEM leukemia
  GI50: < 5 nM
  TGI: > 50000 nM
IGROV1 ovarian
  GI50: 7.62 nM
  TGI: > 50000 nM
OVCAR-4 ovarian
  GI50: 21.8 nM
  TGI: > 50000 nM
KM12 colon
  GI50: < 5 nM
  TGI: > 50000 nM
SN12C renal
  GI50: < 5 nM
  TGI: > 50000 nM
HT29 colon
  GI50: < 5 nM
  TGI: > 50000 nM
UACC-257 melanoma
  GI50: > 50000 nM
  TGI: > 50000 nM
SK-MEL-28 melanoma
  GI50: 3470 nM
  TGI: > 50000 nM
RXF 393 renal
  GI50: 6.44 nM
  TGI: > 50000 nM
MCF7 breast
  GI50: < 5 nM
  TGI: > 50000 nM
LOX IMVI melanoma
  GI50: < 5 nM
  TGI: > 22900 nM
EKVX NSCLC
  GI50: 9.51 nM
  TGI: > 50000 nM
U251 CNS
  GI50: < 5 nM
  TGI: > 32900 nM
SK-MEL-5 melanoma
  GI50: < 5 nM
  TGI: 62.8 nM
OVCAR-5 ovarian
  GI50: 9.94 nM
  TGI: > 50000 nM
NCI/ADR-RES ovarian
  GI50: 24.4 nM
  TGI: 34800 nM
NCI-H522 lung
  GI50: < 5 nM
  TGI: 42.6 nM
RPMI-8226 leukemia
  GI50: < 5 nM
  TGI: 21600 nM
TK-10 renal
  GI50: > 17100 nM
  TGI: > 50000 nM
BT-549 breast
  GI50: < 5 nM
  TGI: 134 nM
